A word on the IC50: it is the point on the concentration scale where inhibition reaches its midpoint.

In one test the test system is NCI-H508 cells. Nature of the test: MTT cytotoxicity assay, NCI-H508 cells. Format: cell-based. Particulars: Homo sapiens, 72 h post-treatment, read-out: IC50 (µM) BRAF NCI-H508. As for the experimental part: (§1) The in-vitro cytotoxic activity of the synthesized compounds on seven human CRC cell lines including KRAS (T84, SW620, LoVo) and BRAF (HT29, NCI-H508, RKO and LS411N) mutated cells were determined by MTT assay as previously described. The IC50 values obtained are summarized in Table 2 in which 5-FU and normal human dermal fibroblasts (NHDF) were used as controls. Meanwhile, a heatmap (Figure 3) was also generated using GraphPad Prism v7.0 (GraphPad Software, La Jolla, CA, USA) to visualize the cytotoxic trends of synthesized compounds graphically.
(§2) A panel of KRAS (T84, SW620 and LoVo) and BRAF (HT29, NCI-H508, RKO and LS411N) mutated human CRC cell lines were grown in Dulbecco’s modified Eagle’s medium (DMEM) containing 10% fetal bovine serum (FBS) and 1% penicillin/streptomycin at 37 °C under 5% CO2 while NHDF cells were cultured in DMEM with 5% FBS under the same condition. The culture medium was replenished every two days until the cells reached 80–90% confluency for further usage. All cell lines (T84, ATCC®CCL-248™; SW620, ATCC®CCL-227™; LoVo, ATCC®CCL-229™; HT-29, ATCC®HTB-38; NCI-H508, ATCC®CCL-253™; RKO, ATCC®CRL-2577; LS411N, ATCC®CRL-2159; NHDF, ATCC® PCS-201-010™) were purchased from American Type culture Collections (ATCC, Manassas, VA, USA).
(§3) LoVo cells (1.5–5 × 10^3 cells/well) were seeded into a 96 well plate and incubated at 37 °C and 5% CO2 atmosphere for 24 h. On the following day, the cell media were replaced with 100 µL of test compounds at various concentration. The final concentration of DMSO in the well is 0.1%. After 72 h of incubation, culture medium was removed and 100 µL of MTT (thiazoyl blue tertrazolium bromide) solution (0.5 mg/mL in culture media) was added. The resultant plates were then further incubated at 37 °C for 4 h. Upon completion, the MTT solution was removed and the formazan salts formed were dissolved in 100 µL of DMSO. The absorbance was recorded with a microplate reader at 570 nm. The IC50 values of tested compounds were calculated from three independent experiments.
In general terms: Tetrazolium dyes change colour on reduction, which living cells bring about.

For a further test, the system named is LoVo cells. The test can be described thus: Morphological inspection. Particulars: 0.625-5 µM, 24 h post-treatment. Format: cell-based, human. As for the experimental part:
LoVo cells (5 × 10^4 cells/well) were seeded into a 12 well plate and incubated at 37 °C and 5% CO2 atmosphere for 24 h. Next, the culture media were replaced with 1 mL of test compounds at various concentration and further incubated for 24 h. The final concentration of DMSO in the well is 0.1%. The morphological changes of compound-treated cells were photographed using a fluorescent microscope.

A further test deals with Bcl-2. The test can be described thus: Western blot, Bcl-2. The class given is cell-based, human. Particulars: 5 µM, LoVo cells, as early as 24 h post-treatment. As to the method:
(§4) Lovo cells (1.5 × 10^4 cells/cm^2) were seeded in a T75 flask and incubated at 37 °C and 5% CO2 atmosphere overnight. The seeded cells were then treated with selected compounds at 5 µM of 2e for 24 h, 48 h, and 72 h. After treatment, the cells were harvested and lysed with phenylmethanesulfonyl fluoride (PMSF)-containing cell lysis buffer. The lysates were then centrifuged at 13,300× g for 15 min and the supernatant was collected. Protein concentrations of all samples were determined using a BCA assay kit (Thermo Scientific Inc., Waltham, MA, USA). Equal amounts of protein were electrophoresed in 12% and 20% SDS-polyacrylamide gel (SDS-PAGE), and electro-transferred onto a 0.22-μm polyvinyldene difluoride membrane. Each membrane was blocked with 5% (w/v) skim milk at room temperature for 1 h followed by overnight incubation with specific primary antibodies (1:1000) at 4 °C. Subsequently, the respective membrane was washed thrice with TBST (0.05% (v/v) of tween-20) followed by 1 h incubation with secondary antibody (1:10,000). Upon completion, the membrane was washed thrice with 1X Tris-Buffered Saline, 0.1% Tween® 20 Detergent (TBST) and the immune reactive bands were developed using SuperSignal West Dura Extended Duration Substrate (Thermo Scientific Inc., Waltham, MA, USA). […]
(Immunoblotting shows a protein as a band on a membrane.)

The subject of the next test is Mcl-1. Nature of the test: Western blot, Mcl-1. Particulars: 5 µM, LoVo cells, up to 72 h. Format: cell-based, human. As for the experimental part:
as §4

The subject of another test is RKO cells. The test can be described thus: MTT cytotoxicity assay, RKO cells. Format: cell-based. Particulars: Homo sapiens, 72 h post-treatment, read-out: IC50 (µM) BRAF RKO. As to the method:
as §1, §2, §3

Consider `O=C1C(=Cc2ccccc2Br)CSCC1=Cc1ccccc1Br` [Compound 2e, 3,5-Bis(2-bromobenzylidene)tetrahydro-4H-thiopyran-4-one], for which the IC50 was 1.1 µM in the test on NCI-H508 cells and 1.2 µM in the test with RKO cells. Also, in the test on LoVo cells, the “morphology of treated LoVo cells” value is “shrink from an epithelial-like shape to a round shape”. In the test with Bcl-2, the Bcl-2 expression result is recorded as “significantly inhibited”. Further, the Mcl-1 expression entry in the test with Mcl-1 was “remained unaffected”.
